Assay results taken from publication PMC7531004, “Discovery of gramicidin A analogues with altered activities by multidimensional screening of a one-bead-one-compound library” (Nature Communications, 2020).
Where a SMILES comes first, the peptide text is derived from it. [ ]: non-standard residue; d: D form. The star is where a group is joined. NHCH2CH2OH = OCCN*; For = O=C*

Tests used:
[1] = system: P388 mouse leukemia cells; details: 92 h
Summary of the method: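 P388 cells at 1 × 10^4 cells/mL (final) were exposed to library peptides (stocks diluted 250-fold in RPMI1640/10% FBS) for 92 h at 37 °C, 5% CO2. Viable cells were counted by WST-1/1-methoxy PMS (4 h), absorbance 415 nm, and expressed as cell viability (%).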

[2] = H+/Na+ transport assay of bead-derived peptides (one-point); format: biochemical; parameters: key: relative activity; mean of two control wells = 1.00; details: bead-derived peptide solution, EYPC/EYPG LUVs;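 further: relative to parent gramicidin A activity set to 1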
Summary of the method: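 Miniaturized 96-well format. LUVs with entrapped pyranine (1.0 mM) were exposed to peptide for 30 min at RT. Intensities were expressed relative to full lysis by Triton X-100 and no treatment, with control-well mean = 1.00.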

[3] = system: Streptococcus pyogenes SSI-9; experiment: Antibacterial activity assay of bead-derived peptides (three concentrations); format: cell-based; parameters: key: +++: inhibition by the 640-fold diluted peptide solution; ++: inhibition by the 160-fold diluted solution; +: inhibition by the 40-fold diluted solution; -: no inhibition; details: S. pyogenes, bead-derived peptide solution, three concentrations
Summary of the method: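 Undiluted, 4-fold and 16-fold DMSO-diluted peptide stocks; S. pyogenes SSI-9, 2 × 10^5 CFU, cation-adjusted MHB (50 mg/L Ca2+, 25 mg/L Mg2+) + 5% laked horse blood; 37 °C, 18 h; readout = cell pellet visible or not.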

| Structure (SMILES) | cell viability/% [1] | H+/Na+ transport activity normalized against the value of 1 (1.00) [2] | antibacterial activity [3] |
| --- | --- | --- | --- |
| CC(C)C[C@@H](NC(=O)[C@H](C)NC(=O)CNC(=O)[C@@H](NC=O)C(C)C)C(=O)N[C@@H](C)C(=O)N[C@H](CC(C)C)C(=O)N[C@H](C(=O)N[C@@H](C(=O)N[C@@H](Cc1c[nH]c2ccccc12)C(=O)N[C@@H](C(=O)N[C@@H](Cc1c[nH]c2ccccc12)C(=O)N[C@H](CC(C)C)C(=O)N[C@@H](Cc1c[nH]c2ccccc12)C(=O)N[C@@H](C(=O)N[C@@H](Cc1c[nH]c2ccccc12)C(=O)NCCO)C(C)C)C(C)C)C(C)C)C(C)C [compound 4297] (For-VGA[dL]A[dL]V[dV]W[dV]W[dL]W[dV]W-NHCH2CH2OH) | 2.3% | 1.29 | + |
| CC(C)C[C@@H](NC(=O)[C@H](C)NC(=O)CNC(=O)[C@@H](NC=O)C(C)C)C(=O)N[C@@H](C)C(=O)N[C@H](CC(C)C)C(=O)N[C@H](C(=O)N[C@@H](C(=O)N[C@@H](Cc1c[nH]c2ccccc12)C(=O)N[C@@H](C(=O)N[C@@H](Cc1c[nH]c2ccccc12)C(=O)N[C@@H](C(=O)N[C@@H](Cc1c[nH]c2ccccc12)C(=O)N[C@H](CC(C)C)C(=O)N[C@@H](Cc1c[nH]c2ccccc12)C(=O)NCCO)[C@H](C)O)C(C)C)C(C)C)C(C)C [compound 6876] (For-VGA[dL]A[dL]V[dV]W[dV]W[dT]W[dL]W-NHCH2CH2OH) | 100.0% | 1.13 | - |
| CC(C)C[C@@H](NC(=O)[C@H](C)NC(=O)[C@H](NC(=O)[C@H](C)NC(=O)CNC(=O)[C@@H](NC=O)C(C)C)C(C)C)C(=O)N[C@H](C(=O)N[C@@H](C(=O)N[C@@H](Cc1c[nH]c2ccccc12)C(=O)N[C@@H](C(=O)N[C@@H](Cc1c[nH]c2ccccc12)C(=O)N[C@H](CC(C)C)C(=O)N[C@@H](Cc1c[nH]c2ccccc12)C(=O)N[C@@H](C(=O)N[C@@H](Cc1c[nH]c2ccccc12)C(=O)NCCO)C(C)C)C(C)C)[C@H](C)O)C(C)C [compound 7131] (For-VGA[dV]A[dL]V[dT]W[dV]W[dL]W[dV]W-NHCH2CH2OH) | 100.0% | 1.08 | - |
| CC(C)C[C@@H](NC(=O)[C@H](C)NC(=O)CNC(=O)[C@@H](NC=O)C(C)C)C(=O)N[C@@H](C)C(=O)N[C@@H](C(=O)N[C@H](C(=O)N[C@H](CC(C)C)C(=O)N[C@@H](Cc1c[nH]c2ccccc12)C(=O)N[C@@H](C(=O)N[C@@H](Cc1c[nH]c2ccccc12)C(=O)N[C@@H](C(=O)N[C@@H](Cc1c[nH]c2ccccc12)C(=O)N[C@@H](C(=O)N[C@@H](Cc1c[nH]c2ccccc12)C(=O)NCCO)C(C)C)C(C)C)C(C)C)C(C)C)C(C)C [compound 7938] (For-VGA[dL]A[dV]V[dL]W[dV]W[dV]W[dV]W-NHCH2CH2OH) | 17.4% | 1.10 | + |
| CNC(=O)C[C@@H](NC(=O)[C@@H](NC(=O)[C@H](NC(=O)[C@H](C)NC(=O)[C@@H](CC(C)C)NC(=O)[C@H](C)NC(=O)CNC(=O)[C@@H](NC=O)C(C)C)C(C)C)C(C)C)C(=O)N[C@@H](Cc1c[nH]c2ccccc12)C(=O)N[C@@H](C(=O)N[C@@H](Cc1c[nH]c2ccccc12)C(=O)N[C@H](CC(C)C)C(=O)N[C@@H](Cc1c[nH]c2ccccc12)C(=O)N[C@@H](C(=O)N[C@@H](Cc1c[nH]c2ccccc12)C(=O)NCCO)C(C)C)C(C)C [compound 9521] (For-VGA[dL]A[dV]V[dD](NHMe)W[dV]W[dL]W[dV]W-NHCH2CH2OH) | 100.0% | 1.14 | - |
| CC(C)C[C@@H](NC(=O)[C@H](C)NC(=O)CNC(=O)[C@@H](NC=O)C(C)C)C(=O)N[C@@H](C)C(=O)N[C@@H](C(=O)N[C@H](C(=O)N[C@H](CC(C)C)C(=O)N[C@@H](Cc1c[nH]c2ccccc12)C(=O)N[C@H](CC(C)C)C(=O)N[C@@H](Cc1c[nH]c2ccccc12)C(=O)N[C@@H](C(=O)N[C@@H](Cc1c[nH]c2ccccc12)C(=O)N[C@H](CC(C)C)C(=O)N[C@@H](Cc1c[nH]c2ccccc12)C(=O)NCCO)C(C)C)C(C)C)[C@H](C)O [compound 9676] (For-VGA[dL]A[dT]V[dL]W[dL]W[dV]W[dL]W-NHCH2CH2OH) | 100.0% | 1.05 | - |
| CC(C)C[C@@H](NC(=O)[C@H](C)NC(=O)CNC(=O)[C@@H](NC=O)C(C)C)C(=O)N[C@@H](C)C(=O)N[C@H](CC(C)C)C(=O)N[C@H](C(=O)N[C@@H](C(=O)N[C@@H](Cc1c[nH]c2ccccc12)C(=O)N[C@H](CC(C)C)C(=O)N[C@@H](Cc1c[nH]c2ccccc12)C(=O)N[C@@H](C(=O)N[C@@H](Cc1c[nH]c2ccccc12)C(=O)N[C@@H](C(=O)N[C@@H](Cc1c[nH]c2ccccc12)C(=O)NCCO)C(C)C)[C@H](C)O)C(C)C)C(C)C [compound 13273] (For-VGA[dL]A[dL]V[dV]W[dL]W[dT]W[dV]W-NHCH2CH2OH) | 100.0% | 1.05 | - |
| CNC(=O)C[C@@H](NC(=O)[C@@H](NC(=O)[C@H](NC(=O)[C@H](C)NC(=O)[C@H](NC(=O)[C@H](C)NC(=O)CNC(=O)[C@@H](NC=O)C(C)C)C(C)C)C(C)C)C(C)C)C(=O)N[C@@H](Cc1c[nH]c2ccccc12)C(=O)N[C@H](CC(C)C)C(=O)N[C@@H](Cc1c[nH]c2ccccc12)C(=O)N[C@H](CC(C)C)C(=O)N[C@@H](Cc1c[nH]c2ccccc12)C(=O)N[C@@H](C(=O)N[C@@H](Cc1c[nH]c2ccccc12)C(=O)NCCO)C(C)C [compound 11796] (For-VGA[dV]A[dV]V[dD](NHMe)W[dL]W[dL]W[dV]W-NHCH2CH2OH) | 100.0% | 1.33 | - |
| CC(C)C[C@@H](NC(=O)[C@H](Cc1c[nH]c2ccccc12)NC(=O)[C@@H](CC(C)C)NC(=O)[C@H](Cc1c[nH]c2ccccc12)NC(=O)[C@@H](CC(C)C)NC(=O)[C@H](Cc1c[nH]c2ccccc12)NC(=O)[C@@H](CC(C)C)NC(=O)[C@@H](NC(=O)[C@H](NC(=O)[C@H](C)NC(=O)[C@H](NC(=O)[C@H](C)NC(=O)CNC(=O)[C@@H](NC=O)C(C)C)C(C)C)C(C)C)C(C)C)C(=O)N[C@@H](Cc1c[nH]c2ccccc12)C(=O)NCCO [compound 3308] (For-VGA[dV]A[dV]V[dL]W[dL]W[dL]W[dL]W-NHCH2CH2OH) | 0.1% | 1.15 | ++ |
| CC(C)C[C@@H](NC(=O)[C@H](C)NC(=O)CNC(=O)[C@@H](NC=O)C(C)C)C(=O)N[C@@H](C)C(=O)N[C@H](CC(C)C)C(=O)N[C@H](C(=O)N[C@@H](C(=O)N[C@@H](Cc1c[nH]c2ccccc12)C(=O)N[C@@H](C(=O)N[C@@H](Cc1c[nH]c2ccccc12)C(=O)N[C@@H](C(=O)N[C@@H](Cc1c[nH]c2ccccc12)C(=O)N[C@H](CC(C)C)C(=O)N[C@@H](Cc1c[nH]c2ccccc12)C(=O)NCCO)C(C)C)[C@H](C)O)C(C)C)C(C)C [compound 6950] (For-VGA[dL]A[dL]V[dV]W[dT]W[dV]W[dL]W-NHCH2CH2OH) | 100.0% | 1.06 | - |
| CNC(=O)C[C@@H](NC(=O)[C@@H](NC(=O)[C@H](NC(=O)[C@H](C)NC(=O)[C@@H](CC(C)C)NC(=O)[C@H](C)NC(=O)CNC(=O)[C@@H](NC=O)C(C)C)C(C)C)C(C)C)C(=O)N[C@@H](Cc1c[nH]c2ccccc12)C(=O)N[C@H](CC(C)C)C(=O)N[C@@H](Cc1c[nH]c2ccccc12)C(=O)N[C@@H](C(=O)N[C@@H](Cc1c[nH]c2ccccc12)C(=O)N[C@@H](C(=O)N[C@@H](Cc1c[nH]c2ccccc12)C(=O)NCCO)C(C)C)C(C)C [compound 2932] (For-VGA[dL]A[dV]V[dD](NHMe)W[dL]W[dV]W[dV]W-NHCH2CH2OH) | 87.5% | 1.27 | - |
| CC(C)C[C@@H](NC(=O)[C@H](Cc1c[nH]c2ccccc12)NC(=O)[C@H](NC(=O)[C@H](Cc1c[nH]c2ccccc12)NC(=O)[C@@H](CC(C)C)NC(=O)[C@H](Cc1c[nH]c2ccccc12)NC(=O)[C@H](NC(=O)[C@@H](NC(=O)[C@H](NC(=O)[C@H](C)NC(=O)[C@H](NC(=O)[C@H](C)NC(=O)CNC(=O)[C@@H](NC=O)C(C)C)[C@H](C)O)C(C)C)C(C)C)C(C)C)C(C)C)C(=O)N[C@@H](Cc1c[nH]c2ccccc12)C(=O)NCCO [compound 11199] (For-VGA[dT]A[dV]V[dV]W[dL]W[dV]W[dL]W-NHCH2CH2OH) | 65.2% | 1.00 | - |
| CC(C)C[C@@H](NC(=O)[C@H](Cc1c[nH]c2ccccc12)NC(=O)[C@@H](CC(C)C)NC(=O)[C@@H](NC(=O)[C@H](NC(=O)[C@H](C)NC(=O)[C@H](NC(=O)[C@H](C)NC(=O)CNC(=O)[C@@H](NC=O)C(C)C)C(C)C)C(C)C)C(C)C)C(=O)N[C@@H](Cc1c[nH]c2ccccc12)C(=O)N[C@@H](C(=O)N[C@@H](Cc1c[nH]c2ccccc12)C(=O)N[C@@H](C(=O)N[C@@H](Cc1c[nH]c2ccccc12)C(=O)NCCO)C(C)C)[C@H](C)O [compound 5311] (For-VGA[dV]A[dV]V[dL]W[dL]W[dT]W[dV]W-NHCH2CH2OH) | 100.0% | 1.15 | + |
